The results in this text go back to ChEMBL document CHEMBL3621142, “Discovery and Evaluation of Clinical Candidate AZD3759, a Potent, Oral Active, Central Nervous System-Penetrant, Epidermal Growth Factor Receptor Tyrosine Kinase Inhibitor” (J Med Chem, 2015).

Series [1] relates to Brain. Description: (§1) AUC (0 to 7 hrs) in Han Wistar rat brain at 2 mg/kg, po by LC-MS/MS analysis. Type of series: ADME, organism-based. Details: dose 2 mg/kg, time < 7 hr, route oral. The conditions noted are these: in vivo, 7 h.
Series [2] has as its system Rattus norvegicus. Nature of the series: AUC(0 to 24 hrs) in Han Wistar rat at 2 mg/kg, po. Type of series: ADME, organism-based. The arrangement: dose 2 mg/kg, time < 24 hr, route oral. As to conditions: in vivo, 24 h.
The test system of series [3] is Blood. Description: (§2) Fraction unbound in Han Wistar rat blood at 5 uM by equilibrium dialysis method. Type of series: ADME, tissue-based. The conditions noted are these: 5 µM. On the technique in general: In equilibrium dialysis free small molecules cross a membrane that holds back macromolecules.
Series [4] relates to Rattus norvegicus. Description: (§3) Elimination half life in Han Wistar rat at 1 mg/kg, iv. Type of series: ADME, organism-based. As to conditions: in vivo.
Series [5] concerns Blood. Nature of the series: (§4) AUC (0 to 7 hrs) in Han Wistar rat blood at 2 mg/kg, po by LC-MS/MS analysis. Type of series: ADME, organism-based. The arrangement: dose 2 mg/kg, time < 7 hr, route oral. The conditions noted are these: in vivo, 7 h.
Series [6] is described as follows: Ratio of unbound AUC (0 to 7 hrs) in brain to blood of Han Wistar rat at 2 mg/kg, po by LC-MS/MS analysis. It is filed as ADME, organism-based. The conditions noted are these: for Kp uu: Han Wistar, brain and blood, read-out: K(p,uu,brain).
A short description of series [7]: Ratio of unbound AUC (0 to 7 hrs) in CSF to blood of Han Wistar rat at 2 mg/kg, po by LC-MS/MS analysis. It is filed as ADME, organism-based. The conditions noted are these: for Kp uu: Han Wistar, CSF and blood.
For the next series, the system named is Cerebrospinal fluid. Nature of the series: (§5) AUC (0 to 7 hrs) in Han Wistar rat CSF at 2 mg/kg, po by LC-MS/MS analysis. Type of series: ADME, organism-based. Details: time < 7 hr, dose 2 mg/kg, route oral. As to conditions: in vivo, 7 h.
Series [8] concerns Rattus norvegicus. Nature of the series: (§6) Volume of distribution at steady state in Han Wistar rat at 1 mg/kg, iv. Type of series: ADME, organism-based. As to conditions: in vivo.
Series [9] in a line: Permeability from apical to basolateral side in MDCK2-MDR1 cells. Type of series: ADME, cell-based, Canis lupus familiaris, MDCK-II. The conditions noted are these: dog; for Papp A→B: MDCK-MDR1.
In series [10] the test system is Rattus norvegicus. Nature of the series: (§7) Oral bioavailability in Han Wistar rat at 2 mg/kg. It is filed as ADME, organism-based. The conditions noted are these: in vivo.
Series [11] has as its system Brain. Nature of the series: (§8) Fraction unbound in Han Wistar rat brain at 5 uM by equilibrium dialysis method. It is filed as ADME, tissue-based. The conditions noted are these: 5 µM.
Series [12] is described as follows: Oral bioavailability in Han Wistar rat at 5 mg/kg. It is filed as ADME, organism-based. As to conditions: in vivo.
The nature of series [13]: as §1. It is filed as ADME, organism-based. Details: dose 2 mg/kg, time < 7 hr, route oral. As to conditions: Han Wistar, brain.
A short description of series [14]: Clearance in Han Wistar rat at 1 mg/kg, iv. It is filed as ADME, organism-based. As to conditions: in vivo.
The nature of series [15]: Cmax in Han Wistar rat at 5 mg/kg, po. Type of series: ADME, organism-based. The conditions noted are these: in vivo. Details: dose 5 mg/kg, route oral.
The nature of series [16]: as §2. Type of series: ADME, tissue-based. The conditions noted are these: Han Wistar.
Series [17] can be described thus: as §3. It is filed as ADME, organism-based. The conditions noted are these: Han Wistar, in vivo, read-out: beta t1/2 (converted).
Series [18] can be described thus: as §4. It is filed as ADME, organism-based. Details: dose 2 mg/kg, time < 7 hr, route oral. As to conditions: Han Wistar, blood.
The nature of series [19]: AUC(0 to 24 hrs) in Han Wistar rat at 1 mg/kg, iv. It is filed as ADME, organism-based. Details: time < 24 hr, dose 1 mg/kg, route intravenous. The conditions noted are these: in vivo.
Series [20] can be described thus: AUC(0 to 24 hrs) in Han Wistar rat at 5 mg/kg, po. It is filed as ADME, organism-based. Details: dose 5 mg/kg, time < 24 hr, route oral. As to conditions: in vivo.
The nature of series [21]: as §5. Type of series: ADME, organism-based, Cerebrospinal fluid. Details: time < 7 hr, dose 2 mg/kg, route oral. The conditions noted are these: Han Wistar, CSF.
A short description of series [22]: Tmax in Han Wistar rat at 5 mg/kg, po. It is filed as ADME, organism-based. As to conditions: in vivo.
Series [23] can be described thus: as §6. It is filed as ADME, organism-based. The conditions noted are these: Han Wistar, in vivo, read-out: Vdss.
The target of series [24] is Epidermal growth factor receptor (Homo sapiens, UniProt P00533, L858R). It is filed as cell-based, H3255.
Sequence of Epidermal growth factor receptor (Homo sapiens, UniProt P00533, L858R) (P00533 25-1210 L858R limits assumed): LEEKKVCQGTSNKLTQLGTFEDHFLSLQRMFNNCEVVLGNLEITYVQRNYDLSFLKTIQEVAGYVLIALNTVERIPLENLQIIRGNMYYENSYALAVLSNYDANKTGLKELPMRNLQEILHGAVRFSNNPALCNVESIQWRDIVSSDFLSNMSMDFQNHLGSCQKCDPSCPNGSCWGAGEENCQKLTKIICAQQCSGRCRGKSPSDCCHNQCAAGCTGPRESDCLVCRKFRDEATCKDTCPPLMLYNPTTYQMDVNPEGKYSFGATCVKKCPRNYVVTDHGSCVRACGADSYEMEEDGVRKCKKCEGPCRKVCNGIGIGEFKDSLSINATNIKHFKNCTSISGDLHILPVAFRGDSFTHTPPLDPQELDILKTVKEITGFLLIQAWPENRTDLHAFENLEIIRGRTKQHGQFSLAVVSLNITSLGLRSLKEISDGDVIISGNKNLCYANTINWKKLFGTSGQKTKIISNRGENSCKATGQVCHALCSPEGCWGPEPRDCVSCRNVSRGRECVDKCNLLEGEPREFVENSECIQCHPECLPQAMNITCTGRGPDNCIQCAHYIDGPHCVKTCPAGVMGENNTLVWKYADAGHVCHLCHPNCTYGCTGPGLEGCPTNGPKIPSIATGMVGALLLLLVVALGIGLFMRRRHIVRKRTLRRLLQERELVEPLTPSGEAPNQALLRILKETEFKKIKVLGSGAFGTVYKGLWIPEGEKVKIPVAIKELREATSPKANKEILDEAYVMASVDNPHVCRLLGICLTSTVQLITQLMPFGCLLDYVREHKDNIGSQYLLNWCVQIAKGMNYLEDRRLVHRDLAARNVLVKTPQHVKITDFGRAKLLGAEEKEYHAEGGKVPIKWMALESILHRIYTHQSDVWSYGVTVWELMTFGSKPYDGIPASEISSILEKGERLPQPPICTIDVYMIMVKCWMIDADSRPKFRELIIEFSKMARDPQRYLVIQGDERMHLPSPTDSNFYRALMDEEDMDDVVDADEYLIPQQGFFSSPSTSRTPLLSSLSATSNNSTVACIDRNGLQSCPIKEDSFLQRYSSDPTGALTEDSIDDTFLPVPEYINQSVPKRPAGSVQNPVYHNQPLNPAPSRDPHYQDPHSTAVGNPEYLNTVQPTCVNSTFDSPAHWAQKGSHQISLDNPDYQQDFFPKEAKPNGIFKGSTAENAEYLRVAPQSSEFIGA
Series [25] is described as follows: Drug metabolism in rat hepatocytes assessed as piperazine oxidation. It is filed as ADME, cell-based, Hepatocyte.
Series [26] can be described thus: as §8. Type of series: ADME, tissue-based. The conditions noted are these: Han Wistar, brain.
Another series concerns MDR1 (P-gp). Nature of the series: Efflux ratio of permeability from basolateral to apical side over apical to basolateral side in MDCK2-MDR1 cells. Type of series: ADME, cell-based, Canis lupus familiaris. As to conditions: dog, MDCK-MDR1.
Series [27] in a line: Elimination half life in Han Wistar rat at 2 mg/kg, po. It is filed as ADME, organism-based. As to conditions: in vivo, read-out: beta t1/2 (converted).
Another series has as its target Cytochrome P450 3A4 (Homo sapiens, UniProt P08684). Description: Inhibition of human CYP3A4. Type of series: ADME.
The next series concerns the target Cytochrome P450 2D6 (Homo sapiens, UniProt P10635). Description: Inhibition of human CYP2D6. Type of series: ADME.
In series [28] the test system is Rattus norvegicus. Description: Volume of distribution at steady state in Han Wistar rat at 2 mg/kg, […]. It is filed as ADME, organism-based. As to conditions: in vivo.
In series [29] the target is Voltage-gated inwardly rectifying potassium channel KCNH2 (Homo sapiens, UniProt Q12809). Description: Inhibition of human ERG by patch clamp assay. For orientation: In patch-clamp work, channel activity is measured electrically.
Sequence of Voltage-gated inwardly rectifying potassium channel KCNH2 (Q12809 whole entry): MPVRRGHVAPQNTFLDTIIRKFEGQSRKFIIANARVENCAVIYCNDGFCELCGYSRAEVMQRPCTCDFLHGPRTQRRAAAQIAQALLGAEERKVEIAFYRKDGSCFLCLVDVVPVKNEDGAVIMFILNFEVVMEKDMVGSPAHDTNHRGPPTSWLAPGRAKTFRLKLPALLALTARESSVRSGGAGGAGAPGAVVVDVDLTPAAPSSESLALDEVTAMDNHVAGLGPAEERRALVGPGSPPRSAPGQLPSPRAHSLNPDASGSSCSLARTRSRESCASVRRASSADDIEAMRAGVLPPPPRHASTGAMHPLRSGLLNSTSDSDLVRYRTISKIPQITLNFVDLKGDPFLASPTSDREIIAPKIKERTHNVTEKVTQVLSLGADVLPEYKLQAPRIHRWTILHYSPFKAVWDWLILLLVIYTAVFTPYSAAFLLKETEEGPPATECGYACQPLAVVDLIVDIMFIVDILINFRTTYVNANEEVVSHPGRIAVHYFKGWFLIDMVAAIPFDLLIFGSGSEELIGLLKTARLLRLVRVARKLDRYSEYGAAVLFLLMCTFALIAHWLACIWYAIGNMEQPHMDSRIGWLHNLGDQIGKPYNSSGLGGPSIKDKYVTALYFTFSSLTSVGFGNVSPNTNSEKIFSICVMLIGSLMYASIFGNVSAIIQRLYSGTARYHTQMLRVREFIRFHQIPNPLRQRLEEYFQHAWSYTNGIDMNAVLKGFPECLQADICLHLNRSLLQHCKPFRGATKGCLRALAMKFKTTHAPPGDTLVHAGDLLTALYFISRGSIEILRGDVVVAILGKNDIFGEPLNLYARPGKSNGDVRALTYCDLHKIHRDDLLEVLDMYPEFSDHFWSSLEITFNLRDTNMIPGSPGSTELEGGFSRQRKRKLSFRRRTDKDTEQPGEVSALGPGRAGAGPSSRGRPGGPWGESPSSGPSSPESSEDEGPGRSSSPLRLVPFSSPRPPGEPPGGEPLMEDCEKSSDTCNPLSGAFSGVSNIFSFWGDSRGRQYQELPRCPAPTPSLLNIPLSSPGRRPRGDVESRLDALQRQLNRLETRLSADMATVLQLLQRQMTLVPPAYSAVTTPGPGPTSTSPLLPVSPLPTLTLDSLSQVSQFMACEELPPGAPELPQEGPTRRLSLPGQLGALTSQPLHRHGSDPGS
For series [30], the target named is Epidermal growth factor receptor (Homo sapiens, UniProt P00533, EX19DEL). Description: Inhibition of EGFR exon19 deletion mutant phosphorylation in human PC9 cells. Type of series: cell-based, PC-9.
Sequence of Epidermal growth factor receptor (Homo sapiens, UniProt P00533, EX19DEL) (P00533 whole entry, looked up, stated change not applied): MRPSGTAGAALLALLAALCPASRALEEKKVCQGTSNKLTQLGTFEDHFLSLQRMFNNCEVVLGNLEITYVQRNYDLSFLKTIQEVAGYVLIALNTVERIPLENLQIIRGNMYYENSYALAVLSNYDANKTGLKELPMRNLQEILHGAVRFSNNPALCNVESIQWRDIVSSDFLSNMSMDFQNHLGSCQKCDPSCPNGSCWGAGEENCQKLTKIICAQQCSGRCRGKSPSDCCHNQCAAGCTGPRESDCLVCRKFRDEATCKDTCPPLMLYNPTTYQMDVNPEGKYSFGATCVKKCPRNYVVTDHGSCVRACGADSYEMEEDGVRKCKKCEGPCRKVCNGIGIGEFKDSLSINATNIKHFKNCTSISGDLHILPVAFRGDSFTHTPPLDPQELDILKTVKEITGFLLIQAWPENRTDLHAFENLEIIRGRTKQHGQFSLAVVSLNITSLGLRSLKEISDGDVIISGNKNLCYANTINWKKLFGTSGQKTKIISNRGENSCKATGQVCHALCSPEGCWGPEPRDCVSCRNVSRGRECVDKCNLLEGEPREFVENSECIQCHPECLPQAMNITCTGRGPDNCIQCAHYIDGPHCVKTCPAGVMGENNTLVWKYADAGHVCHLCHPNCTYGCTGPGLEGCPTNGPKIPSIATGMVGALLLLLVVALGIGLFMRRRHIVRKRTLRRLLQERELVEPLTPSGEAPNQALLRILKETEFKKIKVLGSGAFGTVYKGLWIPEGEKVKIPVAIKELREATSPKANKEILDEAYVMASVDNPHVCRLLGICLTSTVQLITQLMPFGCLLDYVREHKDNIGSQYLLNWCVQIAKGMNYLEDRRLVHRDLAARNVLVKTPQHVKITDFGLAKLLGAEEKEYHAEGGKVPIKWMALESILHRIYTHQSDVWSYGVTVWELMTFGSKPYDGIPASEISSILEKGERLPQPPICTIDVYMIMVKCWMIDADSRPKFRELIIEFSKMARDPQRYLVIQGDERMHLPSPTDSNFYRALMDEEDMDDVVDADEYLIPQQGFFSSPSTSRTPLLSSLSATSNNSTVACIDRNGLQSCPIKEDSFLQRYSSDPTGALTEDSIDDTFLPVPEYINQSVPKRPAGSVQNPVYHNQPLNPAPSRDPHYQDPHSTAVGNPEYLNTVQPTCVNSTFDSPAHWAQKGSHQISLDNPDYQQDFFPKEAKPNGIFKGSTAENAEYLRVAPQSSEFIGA
The nature of series [31]: Clearance in Han Wistar rat at 2 mg/kg, po. Type of series: ADME, organism-based. The conditions noted are these: in vivo.
A short description of series [32]: as §7. Type of series: ADME, organism-based. The conditions noted are these: Han Wistar, in vivo.
The target of another series is Cytochrome P450 2C9 (Homo sapiens, UniProt P11712). Nature of the series: Inhibition of human CYP2C9. Type of series: ADME.
Sequence of Cytochrome P450 2C9 (P11712 whole entry): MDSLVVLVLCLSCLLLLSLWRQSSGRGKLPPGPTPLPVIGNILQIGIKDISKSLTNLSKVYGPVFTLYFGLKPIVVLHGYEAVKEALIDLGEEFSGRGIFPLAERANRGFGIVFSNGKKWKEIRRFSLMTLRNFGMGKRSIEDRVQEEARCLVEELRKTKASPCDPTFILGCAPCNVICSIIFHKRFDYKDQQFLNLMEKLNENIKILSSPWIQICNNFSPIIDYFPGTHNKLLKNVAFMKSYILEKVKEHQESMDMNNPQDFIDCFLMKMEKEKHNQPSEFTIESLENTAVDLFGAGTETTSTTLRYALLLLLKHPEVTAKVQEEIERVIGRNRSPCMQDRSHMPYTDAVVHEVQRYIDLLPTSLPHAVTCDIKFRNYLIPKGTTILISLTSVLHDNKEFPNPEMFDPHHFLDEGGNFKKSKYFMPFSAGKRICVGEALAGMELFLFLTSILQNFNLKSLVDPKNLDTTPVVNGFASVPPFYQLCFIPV

Sequence of Cytochrome P450 2D6 (P10635 whole entry): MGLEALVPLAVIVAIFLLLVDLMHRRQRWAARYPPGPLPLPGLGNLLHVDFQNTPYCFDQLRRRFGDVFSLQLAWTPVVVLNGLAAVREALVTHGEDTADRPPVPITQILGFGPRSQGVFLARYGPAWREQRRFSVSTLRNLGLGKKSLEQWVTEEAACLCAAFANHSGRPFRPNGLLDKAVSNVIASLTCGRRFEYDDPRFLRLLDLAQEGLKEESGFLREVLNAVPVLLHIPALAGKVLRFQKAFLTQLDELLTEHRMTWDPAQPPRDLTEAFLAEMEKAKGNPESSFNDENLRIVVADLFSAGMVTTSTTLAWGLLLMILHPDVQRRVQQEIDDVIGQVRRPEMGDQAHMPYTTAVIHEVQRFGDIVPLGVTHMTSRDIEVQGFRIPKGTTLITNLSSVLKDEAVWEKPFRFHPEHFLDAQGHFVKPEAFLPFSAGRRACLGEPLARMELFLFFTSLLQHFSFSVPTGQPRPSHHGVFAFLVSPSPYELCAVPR
Sequence of Cytochrome P450 3A4 (P08684 whole entry): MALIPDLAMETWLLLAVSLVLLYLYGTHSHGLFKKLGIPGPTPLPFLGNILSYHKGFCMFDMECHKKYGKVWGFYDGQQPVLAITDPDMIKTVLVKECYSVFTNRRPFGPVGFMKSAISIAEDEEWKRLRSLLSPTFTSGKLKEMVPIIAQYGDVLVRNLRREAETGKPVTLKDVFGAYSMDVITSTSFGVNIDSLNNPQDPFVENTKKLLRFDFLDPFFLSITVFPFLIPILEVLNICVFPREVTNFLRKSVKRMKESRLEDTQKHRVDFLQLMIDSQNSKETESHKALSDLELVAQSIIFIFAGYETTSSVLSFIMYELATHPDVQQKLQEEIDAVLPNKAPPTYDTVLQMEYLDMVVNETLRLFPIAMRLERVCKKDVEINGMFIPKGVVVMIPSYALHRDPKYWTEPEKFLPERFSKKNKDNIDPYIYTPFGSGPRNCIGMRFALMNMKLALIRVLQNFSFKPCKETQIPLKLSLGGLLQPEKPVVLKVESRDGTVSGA

As a reminder, the AUC is concentration integrated over time. Low values mean low exposure, high ones high exposure. The term Papp denotes a coefficient for how fast a substance crosses the barrier. A higher Papp goes with fast passage. Consider `COc1cc2ncnc(Nc3cccc(Cl)c3F)c2cc1OC(=O)N1CCN(C)C2CC21` (stereo in doubt; 1j), for which the AUC was found to be 0.727 µM·h with Brain [1], 2.315 µM·h in the series with Rattus norvegicus [2], 0.74 µM·h with Blood [5] and 0.028 µM·h in the series with Cerebrospinal fluid. Also, the Fu in the series on Blood [3] came out at 2.4%; in the series with Brain [11], 1.8%. Moreover, the “beta t1/2” value in the series with Rattus norvegicus [4] was determined as 1.3 h. Moreover, the “K(p,uu,brain)” value in series [6] (brain) stood at 0.74. The “K(p,uu,CSF)” value in series [7] (csf) is on record as 1.6. This compound yielded a Vdss in the series with Rattus norvegicus [8] of 2.5 L/kg. Besides, the Papp in [9] (mdck-ii) came out at 76 ×10⁻⁶ cm/s. In addition, the F in the series with Rattus norvegicus [10] was 84%.

A word on the bioavailability: it is the share of a dose that reaches the circulation, judged against a reference dose that is usually intravenous. Usually AUC(0-t) stands for the area under the concentration-time curve up to a stated or last time point. What is called clearance is a measure of how efficiently the substance is removed, as volume per time. For orientation: Cmax means the maximum level reached in the sampled fluid or tissue. In general, fraction unbound refers to free concentration divided by total concentration. As a reminder, the Tmax is the time from dosing to the highest level. In general, Papp A→B refers to the apparent permeability from the apical to the basolateral side of a cell layer. The low end stands for poor permeation, the high end for ready permeation. The term IC50 denotes the concentration needed to halve the response being measured. A lower IC50 goes with inhibition by little substance. The term efflux ratio denotes a quotient of directional permeabilities that is used to spot active efflux. Regarding `COc1cc2ncnc(Nc3cccc(Cl)c3F)c2cc1OC(=O)N1CCN(C)CC1`, the bioavailability in series [12] came to 45%. Also, the figures for the area under the curve AUC(0-t) at 7 h in [13], in series [18] and in [21] were 0.825 µM·h, 0.722 µM·h and 0.031 µM·h, respectively. The compound also returned a clearance in [14] of 22 mL/min/kg. The maximum concentration (Cmax) in [15] turned out to be 2020 nM. Besides, the fraction unbound at 5 µM in series [16] worked out at 0.084; in [26], 0.025. In addition, the half-life in series [17] is 2.6 h. Further, the Kp uu in series [6] was determined as 0.34; in series [7], 0.52. Moreover, the exposure AUC(0-t) at 24 h in series [19] worked out at 1.71 µM·h; in [20] it was 3.91 µM·h. For the same compound, the Tmax in series [22] came to 0.25 h. The Vd in series [23] turned out to be 1.8 L/kg. This compound also displayed a Papp A→B in [9] of 28 ×10⁻⁶ cm/s. The compound further displayed an IC50 in [24] of 5 nM. Further, the Drug metabolism entry in series [25] was “metabolite_detected”. Moreover, the efflux ratio in the series on MDR1 (P-gp) amounted to 0.37.

Usually CL/F stands for clearance divided by bioavailability, as obtained after extravascular dosing. Consider `COc1cc2ncnc(Nc3cccc(Cl)c3F)c2cc1CN1CCOCC1`, for which the half-life in series [27] was 1.1 h. Also, the AUC(0-t) at 7 h is 1.01 µM·h in [13], 0.834 µM·h in series [18] and 0.05 µM·h in [21]. Also, the IC50 against Cytochrome P450 3A4 was over 10000 nM; at Cytochrome P450 2D6, over 10000 nM; in series [29] it was 17000 nM; in [30], 3.8 nM; in series [24], 6.6 nM; against Cytochrome P450 2C9, over 10000 nM. The compound also yielded a Vdss in the series with Rattus norvegicus [28] of 2.8 L/kg. Moreover, the fraction unbound at 5 µM was determined as 0.078 in series [16] and 0.03 in [26]. In addition, the Kp uu is 0.47 in series [6] and 0.76 in [7]. Besides, the Papp A→B in series [9] came to 32 ×10⁻⁶ cm/s. The compound further came in with a CL/F in series [31] of 59 mL/min/kg. The compound also had a bioavailability in [32] of 44%. The efflux ratio in the series with MDR1 (P-gp) was determined as 0.33.
